test system: A375P cell line (melanoma); assay: Proliferation inhibition activity against A375P cell line (MTT assay); type: cell-based; conditions: A375P melanoma cells, MTT assay; read-out: A375P (GI50)
Description: Measurement of Proliferation Inhibition Activity Against A375P Cell Line (Melanoma)
An A375P cell line purchased from ATCC was cultured in a DMEM medium [containing 10% FBS, 1% penicillin/streptomycin] at 37° C. in the presence of 5% CO2. The cultured A375P cell line was taken using 0.05% trypsin-0.02% EDTA, and seeded into a 96-well plate at a density of 5×10^3 cells per well.
Cell viability was measured using an MTT [3-(4,5-dimethylthiazol-2-yl)-2,5-diphenyltetrazolium bromide] assay (CellTiter 96 Assay, Promega) as follows. 15 μl of dye was placed per well, the cells were cultured for 2 hours, and then treated with 100 μl of a stop solution, and after 24 hours, absorbance was measured. One day after plating, they were treated with compounds. For treatment with compounds, […] of stock was prepared, and serially diluted to one-third in dimethyl sulfoxide (DMSO) to prepare a 12-point test compound plate, and 0.5 μl was added (final concentration DMSO 0.5%).
In the following Tables 1 to 3, in a case of GI50 being 10 to 30 μM, it was indicated as (+), in a case of it being 1 to 10 μM, it was indicated as (++), and in case of being less than 1 μM, it was indicated as (+++).

SMILES	GI50
CC(=O)N1CCC(C(=O)Nc2ccc(C3=Nc4cscc4NC(=O)C3)cc2)CC1 [Example 8, 1-acetyl-N-(4-(2-oxo-2,3-dihydro-1H-thieno[3,4-b][1,4]diazepine-4-yl)phenyl)piperidine-4-carboxamide]	10 to 30 µM
O=C(Cc1ccc(-c2ccccc2)cc1)Nc1ccc(C2=Nc3cscc3NC(=O)C2)cc1 [Example 16, 2-(biphenyl-4-yl)-N-(4-(2-oxo-2,3-dihydro-1H-thieno[3,4-b][1,4]diazebine-4-yl)phenyl)acetamide]	10 to 30 µM
O=C1CC(c2cccc(NC(=O)C(c3ccc(Cl)cc3)c3ccc(Cl)cc3)c2)=Nc2cscc2N1 [Example 26, 2,2-bis(4-chlorophenyl)-N-(3-(2-oxo-2,3-dihydro-1H-thieno[3,4-b][1,4]diazepine-4-yl)phenyl)acetamide]	10 to 30 µM
CN1CCN(c2cc(C(=O)Nc3cccc(C4=Nc5cscc5NC(=O)C4)c3)cc(C(F)(F)F)c2)CC1 [Example 29, 3-(4-methylpiperazine-1-yl)-N-(3-(2-oxo-2,3-dihydro-1H-thieno[3,4-b][1,4]diazepine-4-yl)phenyl)-5-(trifluoromethyl)benzamide]	10 to 30 µM
O=C1CC(c2ccc(NC(=O)Nc3ccccc3F)cc2)=Nc2cscc2N1 [Example 45, 1-(2-fluorophenyl)-3-(4-(2-oxo-2,3-dihydro-1H-thieno[3,4-b][1,4]diazepine-4-yl)phenyl)urea]	10 to 30 µM
O=C1CC(c2cccc(NC(=O)c3ccc(Cl)c(C(F)(F)F)c3)c2)=Nc2cscc2N1 [Example 18, 4-chloro-N-(3-(2-oxo-2,3-dihydro-1H-thieno[3,4-b][1,4]diazepine-4-yl)phenyl)-3-(trifluoromethyl)benzamide]	1 to 10 µM
O=C1CC(c2cccc(NC(=O)c3ccc(N4CCOCC4)c(C(F)(F)F)c3)c2)=Nc2cscc2N1 [Example 21, 4-morpholino-N-(3-(2-oxo-2,3-dihydro-1H-thieno[3,4-b][1,4]diazepine-4-yl)phenyl)-3-(trifluoromethyl)benzamide]	1 to 10 µM
Cc1cc(C)cc(C(=O)Nc2cccc(C3=Nc4cscc4NC(=O)C3)c2)c1 [Example 34, 3,5-dimethyl-N-(3-(2-oxo-2,3-dihydro-1H-thieno[3,4-b][1,4]diazepine-4-yl)phenyl)benzamide]	10 to 30 µM
O=C1CC(c2ccc(NC(=O)Nc3ccc(Cl)cc3)cc2)=Nc2cscc2N1 [Example 40, 1-(4-chlorophenyl)-3-(4-(2-oxo-2,3-dihydro-1H-thieno[3,4-b][1,4]diazepine-4-yl)phenyl)urea]	1 to 10 µM
O=C1CC(c2cccc(NC(=O)c3ccccc3-c3ccccc3)c2)=Nc2cscc2N1 [Example 23, N-(3-(2-oxo-2,3-dihydro-1H-thieno[3,4-b][1,4]diazepine-4-yl)phenyl)biphenyl-2-carboxamide]	10 to 30 µM
O=C1CC(c2ccc(NC(=O)C(c3ccc(Cl)cc3)c3ccc(Cl)cc3)cc2)=Nc2cscc2N1 [Example 9, 2,2-bis(4-chlorophenyl)-N-(4-(2-oxo-2,3-dihydro-1H-thieno[3,4-b][1,4]diazepine-4-yl)phenyl)acetamide]	10 to 30 µM
O=C1CC(c2cccc(NC(=O)c3cnn(-c4ccccc4)c3C(F)(F)F)c2)=Nc2cscc2N1 [Example 24, N-(3-(2-oxo-2,3-dihydro-1H-thieno[3,4-b][1,4]diazepine-4-yl)phenyl)-1-phenyl-5-(trifluoromethyl)-1H-pyrazole-4-carboxamide]	10 to 30 µM
O=C1CC(c2ccc(NC(=O)Nc3ccc(Cl)c(C(F)(F)F)c3)cc2)=Nc2cscc2N1 [Example 39, 1-(4-chloro-3-(trifluoromethyl)phenyl)-3-(4-(2-oxo-2,3-dihydro-1H-thieno[3,4-b][1,4]diazepine-4-yl)phenyl)urea]	< 1 µM
O=C1CC(c2cccc(NC(=O)c3ccc(Cl)cc3)c2)=Nc2cscc2N1 [Example 30, 4-chloro-N-(3-(2-oxo-2,3-dihydro-1H-thieno[3,4-b][1,4]diazepine-4-yl)phenyl)benzamide]	10 to 30 µM
O=C1CC(c2cccc(NC(=O)c3cc(N4CCOCC4)cc(C(F)(F)F)c3)c2)=Nc2cscc2N1 [Example 20, 3-morpholino-N-(3-(2-oxo-2,3-dihydro-1H-thieno[3,4-b][1,4]diazepine-4-yl)phenyl)-5-(trifluoromethyl)benzamide]	< 1 µM
O=C1CC(c2ccc(NC(=O)c3ccc(Cl)c(C(F)(F)F)c3)cc2)=Nc2cscc2N1 [Example 1, 4-chloro-N-(4-(2-oxo-2,3-dihydro-1H-thieno[3,4-b][1,4]diazepine-4-yl)phenyl)-3-(trifluoromethyl)benzamide]	1 to 10 µM
CC(=O)N1CCC(C(=O)Nc2cccc(C3=Nc4cscc4NC(=O)C3)c2)CC1 [Example 25, 1-acetyl-N-(3-(2-oxo-2,3-dihydro-1H-thieno[3,4-b][1,4]diazepine-4-yl)phenyl)piperidine-4-carboxamide]	10 to 30 µM
O=C1CC(c2ccc(NC(=O)c3cnn(-c4ccccc4)c3C(F)(F)F)cc2)=Nc2cscc2N1 [Example 7, N-(4-(2-oxo-2,3-dihydro-1H-thieno[3,4-b][1,4]diazepine-4-yl)phenyl)-1-phenyl-5-(trifluoromethyl)-1H-pyrazole-4-carboxamide]	1 to 10 µM

same assay, conditions: A375P melanoma cells, MTT assay; read-out: GI50 value against A375P

SMILES	GI50
CNC(=O)c1cc(Oc2ccc(NC(=O)Nc3ccc(Cl)c(C(F)(F)F)c3)cc2)ccn1 [Sorafenib, reference compound]	2.74 µM

same assay, conditions: A375P melanoma cells, statement in words

SMILES	effects against A375P
O=C1CC(c2ccc(NC(=O)Nc3ccc(Cl)c(C(F)(F)F)c3)cc2)=Nc2cscc2N1 [Example 39, 1-(4-chloro-3-(trifluoromethyl)phenyl)-3-(4-(2-oxo-2,3-dihydro-1H-thieno[3,4-b][1,4]diazepine-4-yl)phenyl)urea]	significant effects
O=C1CC(c2cccc(NC(=O)c3cc(N4CCOCC4)cc(C(F)(F)F)c3)c2)=Nc2cscc2N1 [Example 20, 3-morpholino-N-(3-(2-oxo-2,3-dihydro-1H-thieno[3,4-b][1,4]diazepine-4-yl)phenyl)-5-(trifluoromethyl)benzamide]	significant effects

From patent US10174047B2, “Thienodiazepine derivatives or pharmaceutically acceptable salts thereof, and pharmaceutical composition including the same as an active ingredient” (Industry-University Cooperation Foundation Hanyang …, priority 2015, dated 2019)
